Test results published in publication PMC3623016 (Journal of biomolecular screening, 2012).
“And” between values parts separate entries of the source, which are not always exact repeats. Identical values can stand only once. “Also recorded” adds a separate entry of the source. Counter-ions that a name gives are not always drawn.

What was measured:
Igrov1/T8 derived tumors = test: Preliminary in vivo study, ABCG2 resistant tumors, combination with topotecan; set-up: species or system CB-17 SCID mice; settings: for tumor size: intratumoral, daily, 0 to 96 hr, n = 3, p < 0.001
ABCB1 [1] = target: T1, ABCB1 (Homo sapiens, UniProt P08183); test: JC-1 efflux inhibition dose-response, flow cytometry, Jurkat-DNR cells
T1 sequence (P08183 whole entry): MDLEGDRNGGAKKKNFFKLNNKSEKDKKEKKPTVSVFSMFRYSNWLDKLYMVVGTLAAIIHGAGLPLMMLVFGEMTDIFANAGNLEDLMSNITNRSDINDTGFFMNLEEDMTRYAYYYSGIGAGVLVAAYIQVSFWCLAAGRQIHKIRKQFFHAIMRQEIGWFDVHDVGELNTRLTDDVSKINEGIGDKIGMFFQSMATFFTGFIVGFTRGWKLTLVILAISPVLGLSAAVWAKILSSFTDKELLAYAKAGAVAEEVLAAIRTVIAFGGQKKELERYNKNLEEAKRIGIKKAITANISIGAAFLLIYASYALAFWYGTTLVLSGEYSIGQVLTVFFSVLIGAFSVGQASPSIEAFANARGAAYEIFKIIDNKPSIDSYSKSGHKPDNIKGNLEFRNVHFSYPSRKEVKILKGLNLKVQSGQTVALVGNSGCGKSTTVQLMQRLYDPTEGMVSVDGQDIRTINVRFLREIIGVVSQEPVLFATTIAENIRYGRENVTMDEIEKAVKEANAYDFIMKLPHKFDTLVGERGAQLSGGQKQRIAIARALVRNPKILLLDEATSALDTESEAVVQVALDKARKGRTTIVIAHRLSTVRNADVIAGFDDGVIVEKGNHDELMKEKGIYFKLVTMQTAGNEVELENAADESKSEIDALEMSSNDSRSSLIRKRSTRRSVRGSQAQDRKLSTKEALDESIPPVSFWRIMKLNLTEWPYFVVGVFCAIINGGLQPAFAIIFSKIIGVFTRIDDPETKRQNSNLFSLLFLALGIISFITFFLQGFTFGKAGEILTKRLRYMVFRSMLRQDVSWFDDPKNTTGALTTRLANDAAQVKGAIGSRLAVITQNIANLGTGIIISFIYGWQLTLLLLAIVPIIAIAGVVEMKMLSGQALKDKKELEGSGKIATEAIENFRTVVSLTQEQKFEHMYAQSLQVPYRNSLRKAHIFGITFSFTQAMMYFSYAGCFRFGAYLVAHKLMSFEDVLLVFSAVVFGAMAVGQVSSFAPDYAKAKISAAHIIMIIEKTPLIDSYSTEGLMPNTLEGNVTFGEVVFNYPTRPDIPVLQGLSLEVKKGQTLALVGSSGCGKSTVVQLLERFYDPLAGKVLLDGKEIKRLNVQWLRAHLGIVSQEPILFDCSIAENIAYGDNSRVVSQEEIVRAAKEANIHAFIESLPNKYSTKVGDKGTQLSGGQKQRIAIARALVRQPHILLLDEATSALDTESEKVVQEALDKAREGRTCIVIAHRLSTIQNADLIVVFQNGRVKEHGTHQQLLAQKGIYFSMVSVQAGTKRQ

Ig-MXP3 cells = test: Direct cytotoxicity; assay type: cell-based
ABCG2 [2] = target: T2, ABCG2 (Homo sapiens, UniProt Q9UNQ0); test: JC-1 efflux inhibition dose-response, flow cytometry, Ig-MXP3 cells; assay type: cell-based; settings: for ∼Fold G2 Selective: quotient of average ABCB1 IC50 and average ABCG2 IC50, JC-1 efflux assay
T2 sequence (Q9UNQ0 1-655): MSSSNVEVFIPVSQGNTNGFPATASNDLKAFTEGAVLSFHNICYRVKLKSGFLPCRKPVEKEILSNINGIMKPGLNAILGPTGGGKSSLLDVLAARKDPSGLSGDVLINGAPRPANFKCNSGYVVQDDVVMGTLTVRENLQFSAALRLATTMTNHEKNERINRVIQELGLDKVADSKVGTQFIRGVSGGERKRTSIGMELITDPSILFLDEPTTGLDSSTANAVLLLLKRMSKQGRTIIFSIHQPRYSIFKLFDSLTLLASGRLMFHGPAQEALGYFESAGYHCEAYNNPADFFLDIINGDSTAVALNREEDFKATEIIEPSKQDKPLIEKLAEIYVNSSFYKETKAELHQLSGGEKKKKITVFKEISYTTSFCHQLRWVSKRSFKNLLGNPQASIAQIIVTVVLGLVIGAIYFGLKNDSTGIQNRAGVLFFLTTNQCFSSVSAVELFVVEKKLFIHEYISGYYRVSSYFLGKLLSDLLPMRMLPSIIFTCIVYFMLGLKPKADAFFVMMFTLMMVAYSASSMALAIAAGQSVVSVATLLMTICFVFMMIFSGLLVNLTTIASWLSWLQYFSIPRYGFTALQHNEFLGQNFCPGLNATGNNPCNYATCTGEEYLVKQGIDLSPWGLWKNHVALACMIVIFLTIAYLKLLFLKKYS

ABCB1 [3] = target: T1, ABCB1; test: Chemoreversal secondary assay
ABCG2 [4] = target: T2, ABCG2; test: Chemoreversal secondary assay
[5] = test system: drug resistant (ABCG2 expressing) tumor cells; test: Topotecan killing of drug resistant tumor cells; assay type: cell-based; settings: read-out: EC50 resistant cells
[6] = test system: non-resistant (ABCG2 non-expressing) parental tumor cells; test: Topotecan killing of parental tumor cells; assay type: cell-based; settings: read-out: EC50 parental cells

Row | SMILES | ABCB1 TD50 (Jurkat-DNR cells) | ABCG2 TD50 (Ig-MXP3 cells) | ∼Fold G2 Selective (ABCG2 [2]) | further results
1 | O=C(c1ccoc1)N1CCN(c2cc(-c3ccco3)nc3cc(-c4ccccc4)nn23)CC1 [Compound 1] | 5.52 µM | 18.30 µM | 36 fold and 35.8 fold | tumor size (Igrov1/T8 derived tumors; 100 nM of 1 with 150 nM TPT): dramatically reduced tumor size; also recorded: Significant tumor reduction; EC50 (ABCB1 [1]; read-out: ABCB1 EC50, efflux assay, as worded): 4.65 µM; higher potency in ABCG2 than Ko143 (ABCG2 [2]; JC-1 efflux reporter system): approximately 100 fold; EC50 (ABCG2 [2]; read-out: ABCG2 EC50, efflux assay, as worded): 0.13 µM
2 | CN(C)C(=O)CCSC(SCCC(=O)O)c1cccc(/C=C/c2ccc3ccc(Cl)cc3n2)c1 (stereo not drawn) [Compound 5, MK571, reference compound] | – | – | – | IC50 (ABCB1 [1]): > 50 µM; EC50 (ABCB1 [3]): 20.4 µM; EC50 (ABCG2 [4]): 57.4 µM; IC50 (ABCG2 [2]): > 50 µM
3 | Cc1nc2cc(-c3cccc(F)c3)nn2c(N2CCN(C(=O)c3ccco3)CC2)c1C [Compound 7] | – | – | – | tumor size (Igrov1/T8 derived tumors; 500 nM of 7 with 150 nM TPT): dramatically reduced tumor size; also recorded: Significant tumor reduction
4 | O=C(Cc1ccccc1)N1CCN(c2cc(-c3ccccc3)nc3cc(-c4cccc(Cl)c4)nn23)CC1 [Compound 24] | 17.80 µM | >100 µM | 0.8 fold | –
5 | O=C(c1ccoc1)N1CCN(c2cc(-c3cccnc3)nc3cc(-c4cccc(Cl)c4)nn23)CC1 [Compound 30] | 5.33 µM | 5.77 µM | 2.9 fold | –
6 | O=C(c1ccoc1)N1CCN(c2cc(-c3ccncc3)nc3cc(-c4cccc(Cl)c4)nn23)CC1 [Compound 31] | 13.50 µM | 57.80 µM | 2.5 fold | –
7 | COc1ccccc1-c1cc2nc(-c3ccccc3)cc(N3CCN(C(=O)c4ccoc4)CC3)n2n1 [Compound 34] | 4.37 µM | 6.50 µM | 4.8 fold | –
8 | COc1ccc(-c2cc3nc(-c4ccccc4)cc(N4CCN(C(=O)c5ccoc5)CC4)n3n2)cc1 [Compound 36] | 5.54 µM | >100 µM | 1.2 fold | –
9 | COc1ccccc1-c1cc(N2CCN(C(=O)c3ccoc3)CC2)n2nc(-c3ccccc3)cc2n1 [Compound 44] | 3.73 µM | 7.62 µM | 1.2 fold | –
10 | COc1cccc(-c2cc(N3CCN(C(=O)c4ccoc4)CC3)n3nc(-c4ccccc4)cc3n2)c1 [Compound 65] | 5.77 µM | 67.80 µM | 83 fold | –
11 | CC[C@@]1(O)C(=O)OCc2c1cc1n(c2=O)Cc2cc3c(CN(C)C)c(O)ccc3nc2-1 [TPT, topotecan hydrochloride hydrate] | – | – | – | growth of tumors (Igrov1/T8 derived tumors; 150 nM TPT alone, intratumoral (data not shown)): did not affect the growth of tumors; EC50 [5]: 0.311 µM; EC50 [6]: 0.007 µM
